The test system of this assay is TGFβ1-induced fibulin-1 ECM deposition in primary human lung IPF-fibroblasts (phLFs). Kind of assay: Assessing N23P activity in inhibiting ECM deposition in IPF-fibroblasts (fibulin-1 MFI). It is filed as cell-based. To be noted: for inhibition at 10 µM: Homo sapiens, 72 h, TGFβ1 1 ng/ml, MFI. On the procedure:
phLFs were cultured in DMEM F-12 medium with 20% fetal bovine serum (FBS) and antibiotic supplement as mentioned above. Cells were seeded with 6000 cells/well in 384-well CellCarrier plates (Perkin Elmer, Cat #6007550). Following overnight incubation, cells were starved in serum-reduced medium (1% FBS with 0.1 mM 2-phosphoascorbate (Sigma, Cat #49752)) for 24 h. Afterwards, cells were treated with TGFβ1 (1 ng/ml) or vehicle, and additionally small molecules or appropriate vehicle controls were added. After 72 h of incubation, medium was changed for starving medium with 1 μg/mL AlexaFluor-488 fluorophore conjugated anti-collagen-type-5 antibodies (SantaCruz, Clone C-5, Cat #sc-166155 AF488), 0.66 μg/mL AlexaFluor-555 fluorophore conjugated anti-collagen-type-1 antibodies (Rockland, Cat #600-401-103-0.1), and 1 μg/mL AlexaFluor-637 fluorophore conjugated anti-fibulin 1 antibodies (SantaCruz, Clone C-5, Cat #sc-25281 AF647) and 1 μg/mL Hoechst H33342 (Sigma). Fluorescenceconjugation of the collagen type 1 antibody was done by using the AlexaFluor-555 Protein Labeling Kit (Invitrogen, Cat #A20174) according to manufacturer's instructions. Labeling efficacy was controlled by photometrical means.
Following four hours of incubation, cells were washed three times with PBS and fixed with paraformaldehyde (PFA). For automated liquid handling in 384 well plates, an INTEGRA Assist Plus (INTEGRA, Zizers, Switzerland) equipped with an INTEGRA Viaflo 1I pipette (INTEGRA, Zizers, Switzerland, Cat #4642), 125 μL GripTips™ pipette tips (INTEGRA, Zizers, Switzerland, Cat #6464) and sterile reagent reservoirs (INTEGRA, Cat #4311) were applied. All automated pipetting steps with the INTEGRA Assist Plus were performed at 9.5 μL/s in order to ensure proper integrity and attachment of the deposited ECM to the culturing surface within the wells of the 384-well plates. During cell seeding the automated liquid handling was performed at 89.3 μL/s. Removal of liquids from the well-plates was done by manually inverting the plates.
Following fixation, the automated imaging was achieved by using aconfocal laser scanning microscope (LSM710, Zeiss) with automated focus detection for three-dimensional image acquisition (1024 px×1024 px×9 px which equals a dimension of 1417 μm×1417 μm×16 μm). For post-acquisition analysis images were imported into IMARIS software (Bitplane) and volume detection or alternatively quantification of the mean fluorescence intensity, as well as Hoechst-stained cell nuclei were automatically counted by using Imaris' spot detection algorithm.
Cells were seeded with 6000 cells/well in 384-well CellCarrier plates. After overnight incubation, cells were starved in serum-reduced medium (1% FBS with 0.1 mM 2-phosphoascorbate for 24 h). Then, phLFs were treated with TGFβ1 (1 ng/ml) or vehicle, and incubated together with synthesized N23Ps (10 μM) or appropriate vehicle controls. After 72 h of incubation, medium was changed for starvation medium with 1 μg/mL AlexaFluor-637 fluorophore conjugated anti-fibulin 1 antibodies (SantaCruz, Clone C-5, Cat #sc-25281 AF647) and 1 μg/mL Hoechst H33342 (Sigma). Following four hours of incubation, cells were washed three times with PBS and fixed with paraformaldehyde (PFA). Following fixation, the automated imaging was achieved by using a confocal laser scanning microscope (LSM710, Zeiss) with automated focus detection for three-dimensional image acquisition (1024 px×1024 px×9 px which equals a dimension of 1417 μm×1417 μm×16 μm). For post-acquisition analysis images were imported into IMARIS software (Bitplane) and quantified for the mean fluorescence intensity, as well as Hoechst-stained cell nuclei were automatically counted by using Imaris' spot detection algorithm.
Assessment of ECM inhibition I: Mean fluorescence intensity (MFI) values represented the degree of fibulin-1 ECM deposition in three different IPF-phLFs (n=3). […]

The mark [1] stands for this setting: three different IPF-phLFs (n=3).
Where [2] appears, read: one or two different IPF-phLFs (n=1-2).

These results are taken from patent US20240294465A1, “NOVEL ANTI-FIBROTIC DRUGS” (HELMHOLTZ ZENTRUM MUNCHEN - DEUTSCHES FORSCHUNGSZENTRUM FUR …, priority 2021, published 2024).

The structures appear in SMILES notation.

With `COc1ccc(/C=C/C(=O)Nc2ccccc2OCCC2CC2)cc1` [Example 38, (E)-N-(2-(2-cyclopropylethoxy)phenyl)-3-(4-methoxyphenyl)acrylamide], the inhibition (usually the drop in the measured response relative to a control, in per cent) at 10 µM under setting [1] was greater than 90%. Turning to `CCCCOc1cc(Cl)ccc1NC(=O)/C=C/c1ccc(OC)cc1` [Example 21, (E)-N-(2-butoxy-4-chlorophenyl)-3-(4-methoxyphenyl)acrylamide], the inhibition at 10 µM under setting [1] lay within 20 to 60%.

Consider `COc1ccc(/C=C/C(=O)Nc2ccccc2OCCC(F)(F)F)cc1` [Example 155, (E)-3-(4-methoxyphenyl)-N-(2-(3,3,3-trifluoropropoxy)phenyl)acrylamide], for which the inhibition at 10 µM under setting [2] is 60 to 90%.

`CCCCOc1ccccc1NC(=O)/C=C/c1ccc(OCC)cc1` [Example 20, (E)-N-(2-butoxyphenyl)-3-(4-ethoxyphenyl)acrylamide]: under setting [1], the inhibition at 10 µM lay within 60 to 90%.

`CCCCOc1cccc(Cl)c1NC(=O)/C=C/c1ccc(OC)c(OC)c1` [Example 36, (E)-N-(2-butoxy-6-chlorophenyl)-3-(3,4-dimethoxyphenyl)acrylamide]: the inhibition at 10 µM under setting [1] lay in the range of 60 to 90%.

For `CCCCOc1ccccc1N(C)C(=O)/C=C/c1ccc(OC)c(OC)c1` [Example 67], the inhibition at 10 µM under setting [1] was greater than 90%.

Under setting [2], `CCCCOc1ccccc1NC(=O)/C=C/c1ccc2[nH]c(C)nc2c1` [Example 161, (E)-N-(2-butoxyphenyl)-3-(2-methyl-1H-benzo[d]imidazol-5-yl)acrylamide] displayed an inhibition at 10 µM greater than 90%. Molecule `CCCCOc1ccccc1N(C)C(=O)/C=C/c1ccc(OCC)cc1` [Example 71, (E)-N-(2-butoxyphenyl)-3-(4-ethoxyphenyl)-N-methylacrylamide] had an inhibition at 10 µM under setting [1] of 20 to 60%. Regarding `C#CCCCOc1ccc(/C=C/C(=O)Nc2ccccc2OCCCC)cc1` [Example 83, (E)-N-(2-butoxyphenyl)-3-(4-(pent-4-yn-1-yloxy)phenyl)acrylamide], the inhibition at 10 µM reads like this: under setting [2], greater than 90%; under setting [1], greater than 90%.

Molecule `CCCCOc1c(NC(=O)/C=C/c2ccc3sc(C)nc3c2)ccc(F)c1F` [Example 162, (E)-N-(2-butoxy-3,4-difluorophenyl)-3-(2-methylbenzo[d]thiazol-5-yl)acrylamide] yielded an inhibition at 10 µM under setting [2] of 60 to 90%.

Under setting [2], `C#CCCOc1ccccc1NC(=O)/C=C/c1ccc(OC)cc1` [Example 46, (E)-N-(2-(but-3-yn-1-yloxy)phenyl)-3-(4-methoxyphenyl)acrylamide] showed an inhibition at 10 µM of 20 to 60%.

In turn, `CCCCOc1ccccc1NC(=O)/C=C/c1ccc(OCC(F)(F)F)cc1` [Example 2, (E)-N-(2-butoxyphenyl)-3-(4-(2,2,2-trifluoroethoxy)phenyl)acrylamide] had an inhibition at 10 µM under setting [1] of 60 to 90%. On the same count and under the same terms, then `COc1ccc(/C=C/C(=O)Nc2ccccc2Oc2ccccc2)cc1` [Example 3, (E)-3-(4-methoxyphenyl)-N-(2-phenoxyphenyl)acrylamide], with greater than 90%. Under setting [2], `C#CCOc1ccc(/C=C/C(=O)Nc2ccccc2OCCC2(C)N=N2)cc1` [Example 167, (E)-N-(2-(2-(3-methyl-3H-diazirin-3-yl)ethoxy)phenyl)-3-(4-(prop-2-yn-1-yloxy)phenyl)acrylamide] registered an inhibition at 10 µM of 60 to 90%. Molecule `CCCCOc1ccccc1NC(=O)/C(C)=C/c1ccc(OC)cc1` [Example 79, (E)-N-(2-butoxyphenyl)-3-(4-methoxyphenyl)-2-methylacrylamide] displayed an inhibition at 10 µM under setting [1] of 60 to 90%. `CCCCOc1ccccc1NC(=O)/C=C/c1ccc2nonc2c1` [Example 166, (E)-3-(benzo[c][1,2,5]oxadiazol-5-yl)-N-(2-butoxyphenyl)acrylamide] displayed an inhibition at 10 µM under setting [2] of 20 to 60%. As to `COc1ccc(/C=C/C(=O)Nc2ccccc2OCc2ccccc2)cc1` [Example 12, (E)-N-(2-(benzyloxy)phenyl)-3-(4-methoxyphenyl)acrylamide], the inhibition at 10 µM under setting [1] was greater than 90%. As for `CCCCOc1c(NC(=O)/C=C/c2ccc3[nH]ccc3c2)ccc(F)c1F` [Example 163, (E)-N-(2-butoxy-3,4-difluorophenyl)-3-(1H-indol-5-yl)acrylamide], the inhibition at 10 µM under setting [2] was in the range of 20 to 60%. The molecule `COc1ccc(/C=C/C(=O)Nc2ccccc2OCCCC(F)(F)F)cc1` [Example 29, (E)-3-(4-methoxyphenyl)-N-(2-(4,4,4-trifluorobutoxy)phenyl)acrylamide] showed an inhibition at 10 µM under setting [1] of 20 to 60%.

Take `CCCCOc1ccccc1N(Cc1ccccc1)C(=O)/C=C/c1ccc(OC)cc1` [Example 75, (E)-N-benzyl-N-(2-butoxyphenyl)-3-(4-methoxyphenyl)acrylamide]: the inhibition at 10 µM under setting [1] is greater than 90%. For the molecule `COc1ccc(/C=C/C(=O)Nc2ccccc2Oc2ccc(Cl)cc2)cc1` [Example 39, (E)-N-(2-(4-chlorophenoxy)phenyl)-3-(4-methoxyphenyl)acrylamide], the inhibition at 10 µM under setting [1] lay within 60 to 90%. `C#CCCCOc1ccc(/C=C/C(=O)Nc2ccccc2OCCC2(C)N=N2)cc1` [Example 168, (E)-N-(2-(2-(3-methyl-3H-diazirin-3-yl)ethoxy)phenyl)-3-(4-(pent-4-yn-1-yloxy)phenyl)acrylamide]: the inhibition at 10 µM under setting [2] was in the range of 60 to 90%.

For the molecule `CCCCOc1ccccc1NC(=O)/C(=C/c1ccc(OC)cc1)C(C)C` [Example 82, (E)-N-(2-butoxyphenyl)-2-(4-methoxybenzylidene)-3-methylbutanamide], the inhibition at 10 µM under setting [2] was in the range of 20 to 60%. Consider `COc1ccc(/C=C/C(=O)Nc2ccccc2OCCCC2CC2)cc1` [Example 60, (E)-N-(2-(3-cyclopropylpropoxy)phenyl)-3-(4-methoxyphenyl)acrylamide], for which the inhibition at 10 µM under setting [2] was greater than 90%. Under setting [1], `CCCCOc1cc(F)ccc1NC(=O)/C=C/c1ccc(OC)cc1` [Example 31, (E)-N-(2-butoxy-4-fluorophenyl)-3-(4-methoxyphenyl)acrylamide] registered an inhibition at 10 µM of 60 to 90%. Regarding `COc1ccc(/C=C/C(=O)Nc2ccccc2C(=O)O)cc1OC` [Tranilast, reference compound], under “at 10 μM”, the “inhibition of TGFβ1-induced ECM deposition” value was “no inhibition”. For `CCCCOc1ccccc1NC(=O)/C=C/c1ccc2c(c1)CCO2` [Example 34, (E)-N-(2-butoxyphenyl)-3-(2,3-dihydrobenzofuran-5-yl)acrylamide], the inhibition at 10 µM under setting [1] was greater than 90%.

Turning to `COc1ccc(/C=C/C(=O)Nc2ccccc2Oc2ccccc2F)cc1` [Example 43, (E)-N-(2-(2-fluorophenoxy)phenyl)-3-(4-methoxyphenyl)acrylamide], under setting [1], the inhibition at 10 µM is 60 to 90%. Take `CCCCOc1ccccc1NC(=O)/C=C/c1ccc2c(c1)CCC(C)(C)O2` [Example 63]: the inhibition at 10 µM under setting [2] lay within 20 to 60%.

As to `COc1ccc(/C=C/C(=O)Nc2ccccc2OCc2ccc(Cl)cc2)cc1` [Example 45, (E)-N-(2-((4-chlorobenzyl)oxy)phenyl)-3-(4-methoxyphenyl)acrylamide], the inhibition at 10 µM under setting [1] is greater than 90%. Consider `CCCCOc1ccccc1NC(=O)/C=C/c1ccc(S(C)(=O)=O)cc1` [Example 153, (E)-N-(2-butoxyphenyl)-3-(4-(methylsulfonyl)phenyl)acrylamide], for which the inhibition at 10 µM under setting [2] is greater than 90%.

Under setting [1], `CCCCOc1ccccc1NC(=O)/C=C/c1ccc(OC(F)F)cc1` [Example 11, (E)-N-(2-butoxyphenyl)-3-(4-(difluoromethoxy)phenyl)acrylamide] yielded an inhibition at 10 µM of 60 to 90%.

For the molecule `CCCCOc1ccccc1NC(=O)/C=C/c1ccc2c(c1)OC(F)(F)O2` [Example 6], the inhibition at 10 µM lay within 20 to 60% under setting [2] and 60 to 90% under setting [1].
